According to patent publication US7468432B2, “Cobalamin conjugates useful as antitumor agents” (Mayo Foundation for Medical Education and Research, priority 1999, dated 2008):

Legend:
[1] = tested on: African green monkey (Vero) cells; conditions: concentration level of 1600 μM; cited from earlier work
cells = conditions: in vitro neutron radiation of cells grown in the presence of compound; cited from earlier work
transcobalamin proteins = assay: modified unsaturated Vitamin B12 binding capacity (UBBC) assay; set-up: species or system human; conditions: 0.4 ml patient serum treated with 4 μL analog (10 μg per ml normal saline), 20 minutes at room temperature; blocking of Co-57 cyanocobalamin binding; 5 patients, n=10
Protocol: In vitro biological activity of the carborane cyanocobalamin analogs. To assess the in vitro binding of the carborane cyanocobalamin (Example 1, CCC) and DTPA-aminopropylcobalamin (Example 3, DAPC) analogs to the transcobalamin proteins, the unsaturated Vitamin B12 binding capacity (UBBC) assay (see D. A. Collins and H. P. C. Hogenkamp, J. Nuclear Medicine, 1997, 38, 717-723) was performed. Serum was obtained from 5 patients being evaluated for pernicious anemia at the Mayo Clinic. The patients' serum first underwent a routine clinical UBBC as previously described. To determine if the CCC and DAPC analogs would inhibit Co-57 cyanocobalamin from binding to the transcobalamin proteins, the excess serum from the 5 patients underwent modified UBBC.
Specifically, under dim light, 0.4 ml serum was treated with 4 μL (concentration 10 μg CCC per ml normal saline) of the 2 CCC analogs, carborane-d-cyano-cobalamin and carborane-b-cyanocobalamin, and DAPC. The analogs were incubated for 20 minutes at room temperature with the patient's serum. Both the clinical run and the analog treated samples were assayed for UBBC as usual.
The percent PB of the analogs to transcobalamin protein was calculated as follows (PB=100−CCCUBBC cpm/clinical UBBC cpm×100). […]

Row | Compound | cytotoxicity [1] | biological effect equivalent to a concentration of 10B (cells) [μg ^10B/g] | average percent binding (PB) of the analogs to transcobalamin protein (transcobalamin proteins) [%]
1 | O=c1[nH]c(=O)n([C@H]2C[C@H](O)[C@@H](CO)O2)cc1B(O)O [5-dihydroloxyboryl-2′-deoxyuridine] | not cytotoxic | ~6 | –
2 | DTPA-aminopropylcarbalamin [DAPC] | – | – | 98.21
